The results in this text go back to US8465985B2, “Fluorescent probe” (The University of Tokyo, priority 2007, dated 2013).

The nature of this data set: Spectral change of Compound 5 in association with pH change (absorption and fluorescence spectra). It is filed as physicochemical. On the procedure:
For all the samples, measurements were performed in a 1:1 mixed solvent of 100 mM sodium phosphate buffered solution and acetonitrile (containing 0.1% or less of DMSO as an auxiliary solvent).
In the case of Compound 5, for example, the tricarbocyanine fluorophore is a pH-sensitive FRET receptor, the dicarbocyanine fluorophore is an FRET donor, and the compound has a property that when the nitrogen atom binding to the methine chain of the tricarbocyanine fluorophore is protonated, the peak in the excitation spectrum shifts from around 660 nm to the longer wavelength side in connection with decrease of electron donating ability. […] Namely, by dissolving Compound 5 in a test sample, performing excitation with a light of 640 nm, and measuring ratio of fluorescence intensities at 660 nm and 750 nm upon excitation, it becomes possible to detect pH by the ratio method. Compound 5 is especially useful as a pH fluorescent probe for measuring pH in live cells or live tissues, in particular, in deep part tissues, under a physiological condition.
In a 1:1 mixed solution of 100 mmol/L phosphate buffer (pH 1.2, 2.1, 3.3, 3.9, 5.0, 6.0, 6.8) and acetonitrile (containing 0.1% or less of DMSO as an auxiliary solvent), absorption spectra and fluorescence spectra (excitation wavelength: 640 nm) of Compound 5 were measured. It can be understood that with elevation of pH, the absorbance around 650 nm increased, and the absorption spectrum changed. Moreover, it can also be understood that in the fluorescence spectrum, with elevation of pH, the fluorescence intensity decreased around 660 nm, and increased around 750 nm. Therefore, pH change can be accurately measured by using the ratio method based on one-wavelength excitation/ two-wavelength fluorescence measurement. […] The fluorescence intensities at 660 nm and 750 nm linearly change from pH 4 to 6, and accordingly, pH of this range can be measured by using Compound 5.

Where [1] appears, read: excitation 640 nm, 1:1 phosphate buffer (pH 1.2-6.8) and acetonitrile.

SMILES strings stand for the structures.

With `CN1/C(=C/C=C2\CCCC(/C=C/C3=[N+](C)c4ccccc4C3(C)C)=C2NCCCCCC(=O)N[C@H]2CC[C@H](NC(=O)CC[N+]3=C(/C=C/C=C/C=C4/N(CCC(=O)O)c5ccccc5C4(C)C)C(C)(C)c4ccccc43)CC2)C(C)(C)c2ccccc21` [Compound 5], the “change of absorbance around 650 nm with elevation of pH” value (1:1 100 mmol/L phosphate buffer (pH 1.2-6.8) and acetonitrile) is reported as “increased”. In addition, under setting [1], the “change of fluorescence intensity around 660 nm with elevation of pH” value was “decreased” and the “change of fluorescence intensity around 750 nm with elevation of pH” value is reported as “increased”. Further, the “fluorescence wavelength of the tricarbocyanine fluorophore (FRET receptor)” value (excitation light of 640 nm, nitrogen atom not protonated) is on record as “around 750 nm”. Also, the “fluorescence wavelength peak of the dicarbocyanine fluorophore (FRET donor)” value (excitation light of 640 nm, nitrogen atom protonated) is given as “around 660 nm”.
